Earlier results in patent US20080044356A1, “Assemblies of Oligomeric Amyloid Beta Protein and Uses Thereof” (Regents of the University of Minnesota, priority 2004, published 2008).
Like-named read-outs stand apart in the source and are kept apart here.

Key:
[1] = tested on: rats
[2] = tested on: rats; remark: listed apart in the source
[3] = tested on: Alzheimer's disease (AD) patients
[4] = animals treated in utero (congenital hypothyroidism), versus controls
[5] = congenitally hypothyroid rats with replacement treatment

Compound: CN1[C@@H]2CC[C@H]1C[C@@H](OC(=O)C(CO)c1ccccc1)C2 (stereo partly shown) [atropine]
- switching errors ([1]; 1.0 mg/kg IP): increases switching errors significantly
- ALCR Cognitive Effect ([1]; route IP): Increased errors
- ALCR Running Response Rate ([1]; route IP): No effect
- ALCR Running Response Rate ([1]; route IP, 1 mg/kg): Reduced

Compound: CC(C)Cc1ccc(C(C)C(=O)O)cc1 (stereo not shown) [ibuprofen]
- effect on Aβ-induced ALCR performance decrements ([1]; after IH injection of pre-aggregated Aβ): mitigated these effects
- ALCR Cognitive Effect ([1]; route PO): Normalized errors
- ALCR Running Response Rate ([1]; route PO): No effect

Compound: Cn1cc[nH]c1=S [methimzole, methimazole]
- motivation for food in the PR task [2, 4]: not different from that of controls
- Direct test of Motivation ([2]; route PO, FOA, PR assessments): No effect
- learning to criterion in the ALCR task [1, 4]: significantly slower learning to criterion
- ALCR Cognitive Effect ([1]; route PO): Slow learning
- ALCR Running Response Rate ([1]; route PO): No effect

Compound: N[C@@H](Cc1cc(I)c(Oc2cc(I)c(O)c(I)c2)c(I)c1)C(=O)O [thyroxin, thyroxine]
- motivation for food in the PR task [2, 5]: performed equally well
- learning to criterion and error rates in the ALCR task [1, 5]: normal learning to criterion and error rates

Compound: AN-1792: beta amyloid peptide 1-42, used for active immunization
- adverse reaction to active immunization ([3]; human, in vivo): risk of encephalitis
- cognitive function ([3]; immunization, subset of AD patients): encouraging preliminary reports
